Data as given in patent US8461328B2, “Tricyclic heterocyclic compounds, compositions and methods of use thereof” (Genentech, Inc., priority 2010, dated 2013).
Like-named read-outs stand apart in the source and are kept apart here.

Assays:
Type in all cases: biochemical
JAK1 = biological target: T1, JAK1 (Homo sapiens, UniProt P23458); assay: JAK1 inhibition (Table 4)
T1 construct: made in house; host or cells: SF9 insect cells (baculovirus)

JAK3 = biological target: T2, JAK3 (Homo sapiens, UniProt P52333); assay: JAK3 inhibition (Table 4)
T2 construct: made in house; host or cells: SF9 insect cells (baculovirus)

JAK2 = biological target: T3, JAK2 (Homo sapiens, UniProt O60674); assay: JAK2 inhibition (Table 4); settings: read-out: JAK2 Ki
T3 construct: made in house; host or cells: SF9 insect cells (baculovirus)

TYK2 = biological target: T4, TYK2 (Homo sapiens, UniProt P29597); assay: TYK2 inhibition (Table 4)
T4 construct: made in house; host or cells: SF9 insect cells (baculovirus)
T4 sequence (P29597 873-1187): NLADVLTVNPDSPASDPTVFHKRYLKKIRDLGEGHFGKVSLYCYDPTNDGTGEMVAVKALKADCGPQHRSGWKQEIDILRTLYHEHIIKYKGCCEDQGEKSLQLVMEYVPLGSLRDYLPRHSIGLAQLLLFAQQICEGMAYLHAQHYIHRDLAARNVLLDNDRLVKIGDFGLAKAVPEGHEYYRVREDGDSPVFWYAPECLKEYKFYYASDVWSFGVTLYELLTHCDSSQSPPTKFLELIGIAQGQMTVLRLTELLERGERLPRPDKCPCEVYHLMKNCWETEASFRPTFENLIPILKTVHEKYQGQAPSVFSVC

T3 sequence (O60674 812-1132): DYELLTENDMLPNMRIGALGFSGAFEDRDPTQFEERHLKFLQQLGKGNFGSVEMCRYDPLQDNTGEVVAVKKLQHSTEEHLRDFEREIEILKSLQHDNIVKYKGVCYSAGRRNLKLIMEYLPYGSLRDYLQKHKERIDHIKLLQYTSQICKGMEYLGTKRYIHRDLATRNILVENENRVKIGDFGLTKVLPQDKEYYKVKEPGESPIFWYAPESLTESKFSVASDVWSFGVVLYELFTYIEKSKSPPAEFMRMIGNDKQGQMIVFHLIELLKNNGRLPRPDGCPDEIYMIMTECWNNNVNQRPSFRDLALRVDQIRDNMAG
T2 sequence (P52333 783-1124): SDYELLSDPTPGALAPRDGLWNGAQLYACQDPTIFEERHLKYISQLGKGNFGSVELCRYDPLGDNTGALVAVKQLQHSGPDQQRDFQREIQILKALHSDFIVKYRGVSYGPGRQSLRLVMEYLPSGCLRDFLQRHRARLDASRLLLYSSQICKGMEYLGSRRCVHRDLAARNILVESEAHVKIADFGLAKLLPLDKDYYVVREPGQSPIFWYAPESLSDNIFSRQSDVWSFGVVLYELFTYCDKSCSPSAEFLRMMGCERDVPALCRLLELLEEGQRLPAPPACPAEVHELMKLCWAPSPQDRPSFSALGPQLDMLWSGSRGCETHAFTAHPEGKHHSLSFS
T1 sequence (P23458 852-1154): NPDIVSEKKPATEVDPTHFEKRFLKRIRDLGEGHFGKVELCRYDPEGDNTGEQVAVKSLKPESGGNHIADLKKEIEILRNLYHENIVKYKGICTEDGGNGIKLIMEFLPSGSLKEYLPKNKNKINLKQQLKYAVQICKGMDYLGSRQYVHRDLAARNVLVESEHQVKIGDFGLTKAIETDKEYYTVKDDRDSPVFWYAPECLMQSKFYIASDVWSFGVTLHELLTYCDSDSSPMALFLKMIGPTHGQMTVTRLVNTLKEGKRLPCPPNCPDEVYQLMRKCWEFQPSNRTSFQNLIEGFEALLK

SMILES	Ki (JAK1; read-out: JAK1 Ki)	Ki (JAK3; read-out: JAK3 Ki)	Ki (JAK2)	Ki (TYK2)	Ki (JAK1; JAK1 Ki)	Ki (JAK3; JAK3 Ki)
CN1CCOCC1C(=O)N1CCC(n2cnc3cnc4[nH]ccc4c32)CC1 (single isomer, unassigned) [Example 197a, (4-Methyl-morpholin-3-yl)-[4-(6H-1,2,3,5,6-tetraaza-as-indacen-1-yl)-piperidin-1-yl]-methanone]	122 nM	1930 nM	217 nM	2720 nM	–	–
CC(C)NC(=O)Cc1nc2cnc3[nH]ccc3c2n1C1CCN(Cc2ccccc2)CC1 [Example 103, 2-[1-(1-Benzyl-piperidin-4-yl)-1,6-dihydro-1,3,5,6-tetraaza-as-indacen-2-yl]-N-isopropylacetamide]	5.09 nM	11.6 nM	17.3 nM	673 nM	–	–
CC(C)NC(=O)Cc1nc2cnc3[nH]ccc3c2n1C1CCN(CCC#N)CC1 [Example 266, 2-{1-[1-(2-Cyano-ethyl)-piperidin-4-yl]-1,6-dihydro-1,3,5,6-tetraaza-as-indacen-2-yl}-N-isopropyl-acetamide]	5.26 nM	7.87 nM	17.2 nM	120 nM	–	–
N#CCC1CCC(n2c(CO)nc3cnc4[nH]ccc4c32)CC1 (mixture of isomers) [Example 643, [4-(2-Hydroxymethyl-6H-1,2,3,5,6-tetraaza-as-indacen-1-yl)-cyclohexyl]-acetonitrile]	–	–	0.96 nM	0.51 nM	0.27 nM	5.26 nM
Cc1nc2cnc3[nH]ccc3c2n1C1(C)CCN(S(C)(=O)=O)CC1 [Example 580, 1-(1-Methanesulfonyl-4-methyl-piperidin-4-yl)-2-methyl-1,6-dihydro-1,2,3,5,6-tetraaza-as-indacene]	1.45 nM	58.5 nM	12.8 nM	41.3 nM	–	–
Cc1nc2cnc3[nH]ccc3c2n1C1CC2CCC1C2 (stereo not shown) [Example 121, 1-Bicyclo[2.2.1]hept-2-yl-2-methyl-1,6-dihydro-1,2,3,5,6-tetraaza-as-indacene]	1.01 nM	9.31 nM	2.78 nM	5.09 nM	–	–
C[C@@H](O)c1nc2cnc3[nH]ccc3c2n1N1CCOCC1 [Example 891, (R)-1-(1-Morpholin-4-yl-1,6-dihydro-1,3,5,6-tetraaza-as-indacen-2-yl)-ethanol]	65 nM	240 nM	543 nM	165 nM	–	–
CCN1CCC(n2c(CCNC(=O)OC)nc3cnc4[nH]ccc4c32)C(F)(F)C1 (stereo not shown) [Example 908, {2-[1-(1-Ethyl-3,3-difluoro-piperidin-4-yl)-1,6-dihydro-1,3,5,6-tetraaza-as-indacen-2-yl]-ethyl}-carbamic acid methyl ester]	6.07 nM	16.3 nM	37.1 nM	282 nM	–	–
CC(=O)NCCc1nc2cnc3[nH]ccc3c2n1[C@H]1CCCOC1 [Example 856, (S)—N-{2-[1-(Tetrahydro-pyran-3-yl)-1,6-dihydro-1,3,5,6-tetraaza-as-indacen-2-yl]-ethyl}-acetamide]	5.96 nM	276 nM	121 nM	259 nM	–	–
CC(O)c1nc2cnc3[nH]ccc3c2n1C1CC2CCC1O2 (single isomer, unassigned) [Example 936, (endo)-1-[1-(7-Oxa-bicyclo[2.2.1]hept-2-yl)-1,6-dihydro-1,3,5,6-tetraaza-as-indacen-2-yl]-ethanol]	79.8 nM	334 nM	403 nM	215 nM	–	–
Cc1nc2cnc3[nH]ccc3c2n1C1CCC(NC(=O)N(C)CC(F)(F)F)C1 (racemic) [Example 736, 1-Methyl-3-[3-(2-methyl-6H-1,3,5,6-tetraaza-as-indacen-1-yl)-cyclopentyl]-1-(2,2,2-trifluoro-ethyl)-urea]	1.28 nM	0.79 nM	6.42 nM	57.2 nM	–	–
CC(C)(C)OC(=O)N[C@H]1CC[C@H](n2nnc3cnc4[nH]ccc4c32)CC1 [Example 276, [4-(6H-1,2,3,5,6-Pentaaza-as-indacen-1-yl)-cyclohexyl]-carbamic acid tert-butyl ester]	12.1 nM	378 nM	32.3 nM	460 nM	–	–
CC(CF)N1CCC(n2c([C@@H](C)O)nc3cnc4[nH]ccc4c32)CC1 (stereo partly shown) [Example 691, 1-{1-[1-(2-Fluoro-1-methyl-ethyl)-piperidin-4-yl]-1,6-dihydro-1,2,3,5,6-tetraaza-as-indacen-2-yl}-ethanol]	61.4 nM	206 nM	320 nM	750 nM	–	–
c1ccc(N2CCC[C@@H](n3cnc4cnc5[nH]ccc5c43)C2)cc1 [Example 12, 1-((R)-1-Phenyl-piperidin-3-yl)-1,6-dihydro-1,2,3,5,6-tetraaza-as-indacene]	31 nM	17.2 nM	35.7 nM	170 nM	–	–

More lines, now with the values ahead:

Ki (JAK1; read-out: JAK1 Ki)	Ki (JAK3; read-out: JAK3 Ki)	Ki (JAK2)	Ki (TYK2)	Ki (JAK1; JAK1 Ki)	Ki (JAK3; JAK3 Ki)	SMILES
10.2 nM	169 nM	7.47 nM	106 nM	–	–	CN([C@H]1CC[C@H](n2cnc3cnc4[nH]ccc4c32)CC1)S(=O)(=O)C1CC1 [Example 341, Cyclopropanesulfonic acid methyl-[4-(6H-1,3,5,6-tetraaza-as-indacen1-yl)-cyclohexyl]-amide]
12.8 nM	14 nM	17.7 nM	40.9 nM	–	–	Cc1nc2cnc3[nH]ccc3c2n1[C@H]1CCC[C@@](C)(O)C1 [Example 888, (1R,3S)-1-Methyl-3-(2-methyl-6H-1,3,5,6-tetraaza-as-indacen-1-yl)-cyclohexanol]
15.9 nM	234 nM	60.6 nM	202 nM	–	–	Cc1nc2cnc3[nH]ccc3c2n1C1CCN(CC(C)O)CC1 (stereo not shown) [Example 701, 1-[4-(2-Methyl-6H-1,2,3,5,6-tetraaza-as-indacen-1-yl)-piperidin-1-yl]-propan-2-ol]
0.84 nM	2.63 nM	1.93 nM	50.2 nM	–	–	Cc1nc2cnc3[nH]ccc3c2n1C1CCN(Cc2cccnc2)CC1 [Example 283, 2-Methyl-1-(1-pyridin-3-ylmethyl-piperidin-4-yl)-1,6-dihydro-1,3,5,6-tetraaza-as-indacene]
3.33 nM	5.74 nM	37.7 nM	180 nM	–	–	Cc1cc(CN2CCC(n3c(C(C)O)nc4cnc5[nH]ccc5c43)C(F)C2)no1 (stereo not shown) [Example 911, 1-{1-[3-Fluoro-1-(5-methyl-isoxazol-3-ylmethyl)-piperidin-4-yl]-1,6-dihydro-1,3,5,6-tetraaza-as-indacen-2-yl}-ethanol]
84.4 nM	245 nM	1310 nM	1700 nM	–	–	O=C(Cc1nc2cnc3[nH]ccc3c2n1C1CCNCC1)N1CC(F)(F)C1 [Example 269, 1-(3,3-Difluoro-azetidin-1-yl)-2-(1-piperidin-4-yl-1,6-dihydro-1,3,5,6-tetraaza-as-indacen-2-yl)-ethanone]
102 nM	769 nM	86.5 nM	443 nM	–	–	OCCc1nc2cnc3[nH]ccc3c2n1[C@@H]1CCCN(Cc2ccccc2)C1 [Example 15, 2-[1-((R)-1-Benzyl-piperidin-3-yl)-1,6-dihydro-1,2,3,5,6-tetraaza-as-indacen-2-yl]ethanol]
36.1 nM	617 nM	259 nM	1120 nM	–	–	CC1(n2cnc3cnc4[nH]ccc4c32)CCN(Cc2ccnc(C#N)c2)CC1 [Example 756, 4-[4-Methyl-4-(6H-1,3,5,6-tetraaza-as-indacen-1-yl)-piperidin-1-ylmethyl]-pyridine-2-carbonitrile]
4.9 nM	60.7 nM	49.2 nM	9.49 nM	–	–	C[C@@H](O)c1nc2cnc3[nH]ccc3c2n1[C@H]1CCN(CCC#N)C1 [Example 893, 3-{(S)-3-[2-((R)-1-Hydroxy-ethyl)-6H-1,3,5,6-tetraaza-as-indacen-1-yl]-pyrrolidin-1-yl}-propionitrile]
29.1 nM	117 nM	140 nM	89.3 nM	–	–	OCc1nc2cnc3[nH]ccc3c2n1C1CC2CCC1O2 (single isomer, unassigned) [Example 852, endo-[1-(7-Oxa-bicyclo[2.2.1]hept-2-yl)-1,6-dihydro-1,3,5,6-tetraaza-as-indacen-2-yl]-methanol]
1.21 nM	11.4 nM	6.96 nM	1.78 nM	–	–	OCc1nc2cnc3[nH]ccc3c2n1C1CCCCC1 [Example 675, (1-Cyclohexyl-1,6-dihydro-1,2,3,5,6-tetraaza-as-indacen-2-yl)-methanol]
7.17 nM	206 nM	34 nM	44.7 nM	–	–	Cn1cncc1CN[C@H]1CC[C@H](n2cnc3cnc4[nH]ccc4c32)CC1 [Example 575, trans (3-Methyl-3H-imidazol-4-ylmethyl)-[4-(6H-1,3,5,6-tetraaza-as-indacen-1-yl)-cyclohexyl]-amine]
6.05 nM	123 nM	11.2 nM	54.6 nM	–	–	Cc1nc2cnc3[nH]ccc3c2n1C1CCN(C2COC2)CC1 [Example 363, 2-Methyl-1-(1-oxetan-3-yl-piperidin-4-yl)-1,6-dihydro-1,3,5,6-tetraaza-as-indacene]
4.82 nM	211 nM	3.35 nM	43.7 nM	–	–	CN([C@H]1CC[C@H](n2cnc3cnc4[nH]ccc4c32)CC1)S(C)(=O)=O [Example 142, Trans N-Methyl-N-[4-(6H-1,2,3,5,6-tetraaza-as-indacen-1-yl)-cyclohexyl]-methanesulfonamide]
